Data from PMC10797590, “Exploring Rigid and Flexible Scaffolds to Develop Potent Glucuronic Acid Glycodendrimers for Dengue Virus Inhibition” (Bioconjugate Chemistry, 2023).

How the values were obtained:
[1] = biological target: T1, dengue virus envelope protein 2 (DENV2) (Dengue virus type 2, UniProt P29990); assay: SPR binding study of GlcA glycodendrimers on immobilized DENV2 (Biacore 3000, CM4 chip); parameters: species or system dengue virus serotype 2; conditions: for SPR binding response: GD flowed at 100 μM over immobilized DENV2; for Kd: read-out: dissociation constant KD, steady-state analysis of SPR, 1:1 Langmuir model, immobilized DENV2, 25 °C
T1 construct: Dengue virus envelope protein 2 (DENV2) was purchased from the Native Antigen Company; purchased Native Antigen Company
Protocol: In order to evaluate the ability of GDs 4a–f, 9a–c, and 12a–c to interact with dengue virus envelope protein 2 (DENV2), an SPR binding study was carried out.
Compounds 4a–f, 9a–c, and 12a–c were flowed on immobilized DENV2 at a concentration of 100 μM (Figure 1).
Dengue virus envelope protein 2 (DENV2) was purchased from the Native Antigen Company. SPR sensor chips CM4 (carboxymethylated dextran) and other reagents used in SPR experiments were purchased from GE Healthcare. SPR experiments were performed with a Biacore 3000.
SPR experiments were performed at 25 °C with a Biacore 3000 (GE Healthcare). PBST (10 mm phosphate, pH 7.40, 150 mm NaCl, and 0.005% v/v surfactant P20) was used as a running buffer. A solution with the dengue virus serotype 2 protein (DENV2) was adjusted to 20 μg/mL in 10 mM citrate pH 4.00 buffer, and the protein was immobilized in flow cell 1 of a CM4 sensor chip by following the amine coupling method according to the manufacturer’s instructions. Prior to injection over the sensor chip, DENV2 was mixed with a 4-fold molar excess of HS, for 30 min at 4 °C, to protect the GAG-binding domains of the envelope protein. The immobilization response was 2000 RU, and then, the sensor surface was washed with 1 M NaCl to remove the bound HS. Sensor chip flow cell 2 was activated, blocked, and used as a reference surface. Blank samples and concentration series were injected on a CM4 chip at a flow rate of 40 μL/min for 180 s, and dissociation was registered for 180 s.
Initially, compounds 4a–f, 9a–c, and 12a–c were flowed on the immobilized DENV2 at a 100 μM concentration. Then different concentration of GDs (5–125 μM) were flowed on the immobilized DENV2 (compound 12b: 5–125 μM; 12c: 5–150 μM; 9b: 25–250 μM; 4c: 25-250 μM).25–250 μM). Data processing and analysis were carried out with Biaevaluation v.4.1.1 (GE Healthcare).
All signals were blank-subtracted, reference-corrected, and globally adjusted to an adequate kinetic model to obtain binding parameters. […] Instead, a steady-state analysis kinetic analysis was carried out assuming the 1:1 Langmuir model. The value of KA is obtained by fitting a plot of RU in the plateau region against the GD concentration, which generates the following equations. [drawing 1] [drawing 2] [drawing 3] [drawing 4] KD is calculated as the inverse of KA (KD = 1/KA).

[2] = biological target: DENV2 envelope protein; conditions: SPR, same experimental conditions as current study; cited from earlier work

Compound	SPR binding response [1]	Kd [1]	fold difference of KD of heparin versus GDs 12b and 12c ([1]; heparin KD 56 nM vs 12b and 12c KD)	Kd [2]
O=C(O)[C@H]1O[C@@H](OCCCn2cc(COc3cc(OCc4cn(CCCO[C@@H]5O[C@H](C(=O)O)[C@@H](O)[C@H](O)[C@H]5O)nn4)cc(OCc4cn(CCCO[C@@H]5O[C@H](C(=O)O)[C@@H](O)[C@H](O)[C@H]5O)nn4)c3)nn2)[C@H](O)[C@@H](O)[C@@H]1O [4c]	60.8 RU			
O=C(O)[C@H]1O[C@@H](OCCCn2cc(COc3cc(COc4cc(OCc5cc(OCc6cn(CCCO[C@@H]7O[C@H](C(=O)O)[C@@H](O)[C@H](O)[C@H]7O)nn6)cc(OCc6cn(CCCO[C@@H]7O[C@H](C(=O)O)[C@@H](O)[C@H](O)[C@H]7O)nn6)c5)cc(OCc5cc(OCc6cn(CCCO[C@@H]7O[C@H](C(=O)O)[C@@H](O)[C@H](O)[C@H]7O)nn6)cc(OCc6cn(CCCO[C@@H]7O[C@H](C(=O)O)[C@@H](O)[C@H](O)[C@H]7O)nn6)c5)c4)cc(OCc4cn(CCCO[C@@H]5O[C@H](C(=O)O)[C@@H](O)[C@H](O)[C@H]5O)nn4)c3)nn2)[C@H](O)[C@@H](O)[C@@H]1O [4d]	0.3 RU			
O=C(O)[C@H]1O[C@@H](OCCCn2cc(COc3cc4c5cc(OCc6cn(CCCO[C@@H]7O[C@H](C(=O)O)[C@@H](O)[C@H](O)[C@H]7O)nn6)c(OCc6cn(CCCO[C@@H]7O[C@H](C(=O)O)[C@@H](O)[C@H](O)[C@H]7O)nn6)cc5c5cc(OCc6cn(CCCO[C@@H]7O[C@H](C(=O)O)[C@@H](O)[C@H](O)[C@H]7O)nn6)c(OCc6cn(CCCO[C@@H]7O[C@H](C(=O)O)[C@@H](O)[C@H](O)[C@H]7O)nn6)cc5c4cc3OCc3cn(CCCO[C@@H]4O[C@H](C(=O)O)[C@@H](O)[C@H](O)[C@H]4O)nn3)nn2)[C@H](O)[C@@H](O)[C@@H]1O [4e]	0.0 RU			
O=C(O)[C@H]1O[C@@H](OCCCn2cc(COc3cc(COCc4cc(OCc5cn(CCCO[C@@H]6O[C@H](C(=O)O)[C@@H](O)[C@H](O)[C@H]6O)nn5)cc(OCc5cn(CCCO[C@@H]6O[C@H](C(=O)O)[C@@H](O)[C@H](O)[C@H]6O)nn5)c4)cc(OCc4cn(CCCO[C@@H]5O[C@H](C(=O)O)[C@@H](O)[C@H](O)[C@H]5O)nn4)c3)nn2)[C@H](O)[C@@H](O)[C@@H]1O [9a]	5.0 RU			
O=C(O)[C@H]1O[C@@H](OCCCn2cc(COc3cc(COCc4cc(OCc5cn(CCCO[C@@H]6O[C@H](C(=O)O)[C@@H](O)[C@H](O)[C@H]6O)nn5)c(OCc5cn(CCCO[C@@H]6O[C@H](C(=O)O)[C@@H](O)[C@H](O)[C@H]6O)nn5)c(OCc5cn(CCCO[C@@H]6O[C@H](C(=O)O)[C@@H](O)[C@H](O)[C@H]6O)nn5)c4)cc(OCc4cn(CCCO[C@@H]5O[C@H](C(=O)O)[C@@H](O)[C@H](O)[C@H]5O)nn4)c3OCc3cn(CCCO[C@@H]4O[C@H](C(=O)O)[C@@H](O)[C@H](O)[C@H]4O)nn3)nn2)[C@H](O)[C@@H](O)[C@@H]1O [9b]	68.5 RU	1750 nM		
O=C(O)[C@H]1O[C@@H](OCCCn2cc(COc3cc(COc4cc(COCc5cc(OCc6cc(OCc7cn(CCCO[C@@H]8O[C@H](C(=O)O)[C@@H](O)[C@H](O)[C@H]8O)nn7)cc(OCc7cn(CCCO[C@@H]8O[C@H](C(=O)O)[C@@H](O)[C@H](O)[C@H]8O)nn7)c6)cc(OCc6cc(OCc7cn(CCCO[C@@H]8O[C@H](C(=O)O)[C@@H](O)[C@H](O)[C@H]8O)nn7)cc(OCc7cn(CCCO[C@@H]8O[C@H](C(=O)O)[C@@H](O)[C@H](O)[C@H]8O)nn7)c6)c5)cc(OCc5cc(OCc6cn(CCCO[C@@H]7O[C@H](C(=O)O)[C@@H](O)[C@H](O)[C@H]7O)nn6)cc(OCc6cn(CCCO[C@@H]7O[C@H](C(=O)O)[C@@H](O)[C@H](O)[C@H]7O)nn6)c5)c4)cc(OCc4cn(CCCO[C@@H]5O[C@H](C(=O)O)[C@@H](O)[C@H](O)[C@H]5O)nn4)c3)nn2)[C@H](O)[C@@H](O)[C@@H]1O [9c]	0.0 RU			
O=C(O)[C@H]1O[C@@H](OCCCn2cc(CN(Cc3cn(CCCO[C@@H]4O[C@H](C(=O)O)[C@@H](O)[C@H](O)[C@H]4O)nn3)Cc3cn(CCCO[C@@H]4O[C@H](C(=O)O)[C@@H](O)[C@H](O)[C@H]4O)nn3)nn2)[C@H](O)[C@@H](O)[C@@H]1O [12a]	9.8 RU			
O=C(O)[C@H]1O[C@@H](OCCCn2cc(COc3cc(COCCN(CCOCc4cc(OCc5cn(CCCO[C@@H]6O[C@H](C(=O)O)[C@@H](O)[C@H](O)[C@H]6O)nn5)cc(OCc5cn(CCCO[C@@H]6O[C@H](C(=O)O)[C@@H](O)[C@H](O)[C@H]6O)nn5)c4)CCOCc4cc(OCc5cn(CCCO[C@@H]6O[C@H](C(=O)O)[C@@H](O)[C@H](O)[C@H]6O)nn5)cc(OCc5cn(CCCO[C@@H]6O[C@H](C(=O)O)[C@@H](O)[C@H](O)[C@H]6O)nn5)c4)cc(OCc4cn(CCCO[C@@H]5O[C@H](C(=O)O)[C@@H](O)[C@H](O)[C@H]5O)nn4)c3)nn2)[C@H](O)[C@@H](O)[C@@H]1O [12b]	203.4 RU	487 nM		
O=C(O)[C@H]1O[C@@H](OCCCn2cc(COc3cc(COCC(COCc4cc(OCc5cn(CCCO[C@@H]6O[C@H](C(=O)O)[C@@H](O)[C@H](O)[C@H]6O)nn5)cc(OCc5cn(CCCO[C@@H]6O[C@H](C(=O)O)[C@@H](O)[C@H](O)[C@H]6O)nn5)c4)(COCc4cc(OCc5cn(CCCO[C@@H]6O[C@H](C(=O)O)[C@@H](O)[C@H](O)[C@H]6O)nn5)cc(OCc5cn(CCCO[C@@H]6O[C@H](C(=O)O)[C@@H](O)[C@H](O)[C@H]6O)nn5)c4)COCc4cc(OCc5cn(CCCO[C@@H]6O[C@H](C(=O)O)[C@@H](O)[C@H](O)[C@H]6O)nn5)cc(OCc5cn(CCCO[C@@H]6O[C@H](C(=O)O)[C@@H](O)[C@H](O)[C@H]6O)nn5)c4)cc(OCc4cn(CCCO[C@@H]5O[C@H](C(=O)O)[C@@H](O)[C@H](O)[C@H]5O)nn4)c3)nn2)[C@H](O)[C@@H](O)[C@@H]1O [12c]	153 RU	624 nM		
heparin [reference compound]			8.6–11 fold	56 nM
